One may read the viability as the share of living cells, or the viability signal relative to a control. A higher viability goes with less harm to the cells.

In brackets after ≈: the same amount, converted by molar mass. Counter-ions that a name gives are not always drawn.

The subject of data set [1] is T1, Staphylococcus aureus SAD30.
T1 construct: SAD30
The experiment in a line: microbe, parasite or virus in culture. On the set-up: species or system bacteria in LB, TSB or NB; broth microdilution MIC, OD600, lowest concentration with no growth.
Description: The minimum inhibitory concentrations (MICs) of compounds were measured using the broth microdilution method.[10] One stab using 10 µL tip from bacteria glycerol stock was inoculated into 5 mL of LB supplemented with selection antibiotics (Kanamycin for Keio collections and chloramphenicol for ASKA collections), and the culture was incubated at 37°C with shaking overnight. The overnight culture was diluted 1:10000 (~5 × 10^5 CFU/mL) and then dispensed in to a 96-well plate containing serial dilutions of indicated compounds in DMSO. The plate was incubated at 37°C for 16–20 h with shaking at 80 rpm and the OD600 was measured using Cytation 5 plate reader (BioTek). MIC was determined as the lowest concentration for which no bacterial growth was observed. LB was used as the growth media for all the bacteria strains unless otherwise mentioned. For S. aureus and A. baumannii strains, tryptic soy broth (TSB, BD, DF0370-17-3) was used as the growth media instead of LB. For P. aeruginosa and K. pneumoniae strains, nutrient broth (NB, RPI, N15100) was used as growth media. All MIC measurements were performed in at least biological duplicates.

The next data set can be described thus: in vitro. Particulars: human, hek293t cells.
The next data set has as its target T2, S. aureus FabH (Staphylococcus aureus, UniProt Q6GAU3).
T2 construct: recombinant, N-terminal His-tag, pET28a(+), E. coli BL21(DE3)
T2 sequence (Q6GAU3 1-313): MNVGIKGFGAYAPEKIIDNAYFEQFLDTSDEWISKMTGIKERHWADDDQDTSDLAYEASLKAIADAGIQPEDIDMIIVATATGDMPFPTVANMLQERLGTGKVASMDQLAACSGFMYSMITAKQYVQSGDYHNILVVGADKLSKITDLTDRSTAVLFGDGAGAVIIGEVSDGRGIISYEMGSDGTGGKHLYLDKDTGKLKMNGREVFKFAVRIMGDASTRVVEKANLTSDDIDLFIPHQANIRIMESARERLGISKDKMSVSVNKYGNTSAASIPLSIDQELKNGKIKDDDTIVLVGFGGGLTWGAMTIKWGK
The experiment in a line: in vitro targeting of purified protein (method not given). The data set is classed as binding. From the text: in vitro targeting of purified protein (method not told in the main text) on S. aureus FabH | The S. aureus FabH […] can also be targeted by 10-F05 in vitro

The target of the next data set is T3, Sf_FabH (Shigella flexneri, UniProt Q83RS8).
T3 construct: gene fabH; recombinant, N-terminal His-tag, pET28a(+), E. coli BL21(DE3), Ni-NTA and Superdex 75
T3 sequence (Q83RS8 1-317): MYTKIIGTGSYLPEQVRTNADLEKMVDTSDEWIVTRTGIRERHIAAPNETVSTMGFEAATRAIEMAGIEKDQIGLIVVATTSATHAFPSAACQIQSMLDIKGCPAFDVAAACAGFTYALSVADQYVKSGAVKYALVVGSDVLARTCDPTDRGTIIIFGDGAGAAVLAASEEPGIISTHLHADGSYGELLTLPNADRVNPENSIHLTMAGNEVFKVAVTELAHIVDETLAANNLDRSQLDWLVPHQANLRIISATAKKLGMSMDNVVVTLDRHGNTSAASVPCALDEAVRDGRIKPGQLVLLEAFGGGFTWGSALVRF
The data set can be described thus: in-gel fluorescence, competition with 5-TMRIA labelling. The format is binding. Particulars: covalent; 1.5 uM protein in PBS, 1 h, 22 °C.

The next data set concerns the target T4, Sf_PdxY (Shigella flexneri, UniProt Q83KY1).
T4 construct: gene pdxY; recombinant, N-terminal His-tag, pET28a(+), E. coli BL21(DE3), Ni-NTA and Superdex 75
T4 sequence (Q83KY1 1-287): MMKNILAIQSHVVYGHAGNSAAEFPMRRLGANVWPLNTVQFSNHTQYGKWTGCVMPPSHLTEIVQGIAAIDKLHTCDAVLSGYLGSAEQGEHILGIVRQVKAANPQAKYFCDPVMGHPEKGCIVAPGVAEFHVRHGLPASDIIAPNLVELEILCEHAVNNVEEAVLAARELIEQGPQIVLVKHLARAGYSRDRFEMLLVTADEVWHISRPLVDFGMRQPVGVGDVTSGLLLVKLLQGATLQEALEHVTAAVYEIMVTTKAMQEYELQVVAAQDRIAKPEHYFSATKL
The data set is described as above. Particulars: covalent; 1.5 uM protein in PBS, 1 h, 22 °C. The format is binding.

As to `O=C(CCl)c1cn(-c2ccc(F)cc2)nn1` [10-F05], the MIC in data set [1] amounted to 10 µM (≈ 2.4 µg/mL). The viability at 48 h, 25 µM in the data set “in vitro” stood at 89.9%. For the same compound, the “in vitro targeting of purified protein (method not given)” value at S. aureus FabH is “The S. aureus FabH [...] can also be targeted by 10-F05 in vitro”. In addition, the “in-gel fluorescence, competition with 5-TMRIA labelling” value on Sf_FabH and at Sf_PdxY was “preincubation with 10-F05 resulted in a dose-dependent decrease in 5-TMRIA labeling of these proteins” in each case.
`CN(Cc1ccc(N(C)C)cc1)C(=O)CCl` [5-F06, 2-chloro-N-{[4-(dimethylamino)phenyl]methyl}-N-methylacetamide hydrochloride] displayed a viability at 48 h, 25 µM in “in vitro” of 0.499%.

Source of the values: paper PMC11995724, “Antibiotic target discovery by integrated phenotypic and activity-based profiling of electrophilic fragments” (Cell chemical biology, 2025).
